# Measurements taken from US20050101595A1, “N-containing cycloalkyl-substituted amino-thiazole derivatives and pharmaceutical compositions for inhibiting cell proliferation and methods for their use” (PFIZER INC., priority 2003, published 2005).
# Where two headings read alike, the source gives them in different places.
# Legend:
# [1] = target: CDK2/Cyclin A (Homo sapiens, UniProt P24941); experiment: Inhibition of CDK2/Cyclin A Retinoblastoma Kinase Activity; assay type: biochemical; conditions: for CDK2 % Inhibition At 0.03 μM: Table 2
# How it was run: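 Percent inhibition is calculated against DMSO-only wells after subtracting no-enzyme background. The enzyme is human CDK2 complexed with proteolyzed cyclin A, used at 10 nM or 19 nM on an Rb fragment with 25 μM [32/33P]ATP, at pH 7.4 and 30° C.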
# [2] = tested on: HCT-116 cell line; experiment: Inhibition of cell growth, tetrazolium salt (MTT) assay; assay type: cell-based; conditions: for IC50: Homo sapiens, HCT-116, 120 h, MTT, three to five days, read-out: HCT-116 IC50; for HCT-116 % Inhibition at 0.25 μM: 0.25 μM compound
# How it was run: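 Growth inhibition by MTT reduction at 540 nm (0.2 mg/mL, 4 h at 37° C, formazan dissolved in DMSO), normalized to cells given only 0.5% v/v DMSO. HCT-116 cultures in McCoy's 5A were dosed 4 h post-plating and kept three to five days at 37° C, 5% CO2.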
# [3] = target: human CDK4 and genetically truncated (1-264) cyclin D3 (Homo sapiens, UniProt P11802); experiment: Inhibition of CDK4/Cyclin D Retinoblastoma Kinase Activity; assay type: biochemical
# human CDK4 and genetically truncated (1-264) cyclin D3, sequence (P11802 whole entry, the tested form may be a part): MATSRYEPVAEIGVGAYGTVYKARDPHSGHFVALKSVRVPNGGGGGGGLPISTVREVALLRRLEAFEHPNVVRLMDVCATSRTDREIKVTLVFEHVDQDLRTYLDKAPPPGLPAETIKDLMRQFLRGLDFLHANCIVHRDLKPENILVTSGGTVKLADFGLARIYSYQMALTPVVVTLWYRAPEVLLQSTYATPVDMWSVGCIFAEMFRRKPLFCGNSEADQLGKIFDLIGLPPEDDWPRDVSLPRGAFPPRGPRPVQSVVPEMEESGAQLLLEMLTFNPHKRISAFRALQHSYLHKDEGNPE
# human CDK4 and genetically truncated (1-264) cyclin D3, sequence (P30281 1-264 partner): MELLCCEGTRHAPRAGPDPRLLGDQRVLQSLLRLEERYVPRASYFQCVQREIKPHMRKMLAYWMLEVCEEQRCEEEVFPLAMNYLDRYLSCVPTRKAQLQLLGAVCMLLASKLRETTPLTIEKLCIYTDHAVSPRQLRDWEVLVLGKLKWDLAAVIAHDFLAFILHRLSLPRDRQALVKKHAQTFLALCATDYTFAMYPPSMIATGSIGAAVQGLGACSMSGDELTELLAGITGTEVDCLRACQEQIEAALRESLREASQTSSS
# How it was run: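 Apparent Ki values derive from fitting activity at varied inhibitor concentrations to a competitive (or competitive tight-binding) model. Kinase reactions used 5 nM CDK4/cyclin D3(1-264), Rb fragment substrate and 25 μM ATP. Incubation ran 20 min at 30 °C, extended to 60 min under linear conditions for tight binders.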
Structure (SMILES),CDK2 % Inhibition at 0.03 μM ([1]; at 0.03 μM) [%],"HCT-116 % Inhibition at 0.1 μM ([2]; HCT-116 cells, at 0.1 μM) [%]",HCT-116 5 Inhibition at 0.25 μM ([2]; HCT-116 cells),CDK4 % Inhibition at 0.03 μM ([3]; at 0.03 μM) [%],also measured
CC(=O)Nc1ccc(C(=O)N2CCC(Nc3nc(N)c(C(=O)c4c(F)cccc4F)s3)CC2)cc1 [Example R146],74,0,10,83,
"Nc1nc(NC2CCN(Cc3ccncc3)CC2)sc1C(=O)c1c(F)cccc1F [Example M2, 1-[4-Amino-2-(1-pyridin-4-ylmethyl-piperidin-4-ylamino)-thiazol-5-yl]-1-(2,6-difluoro-phenyl)-methanone.]",,,,,"Ki ([1]; apparent Ki, CDK2/proteolyzed cyclin A, Rb fragment substrate, 25 μM ATP): 0.433 µM; IC50 ([2]; first HCT-116 column (c4)): 2.1 µM; IC50 ([2]; second HCT-116 column (c5)): 5 µM; Ki ([3]; apparent Ki, CDK4/truncated cyclin D3, Rb fragment substrate, 25 μM ATP): 0.0335 µM"
[N-]=[N+]=C1C=C(S(=O)(=O)N2CCC(Nc3nc(N)c(C(=O)c4c(F)cccc4F)s3)CC2)c2ccccc2C1=O [Example P83],,,,,"CDK2 % Inhibition at 0.03 μM ([1]; 0.03 μM compound, Table 3): −11%; HCT-116 % Inhibition at 0.1 μM ([2]; 0.1 μM compound, HCT-116, Table 3): 10%; HCT-116 % Inhibition at 0.25 μM ([2]; HCT-116, Table 3): 26%; CDK4 % Inhibition at 0.03 μM ([3]; 0.03 μM compound, Table 3): 25%"
Cc1cc(C)c2c(c1C(=O)N1CCC(Nc3nc(N)c(C(=O)c4c(F)cccc4F)s3)CC1)CC(C)(C)C2=O [Example R29],2,0,36,23,
COc1ccc(C(=O)N2CCC(Nc3nc(N)c(C(=O)c4c(F)cccc4F)s3)CC2)c(OC)c1 [Example R8],−11,8,41,13,
Nc1nc(NC2CCN(C(=O)C3(c4ccc(Cl)cc4)CC3)CC2)sc1C(=O)c1c(F)cccc1F [Example R91],−1,2,41,14,
Nc1nc(NC2CCN(C(=O)C(c3ccccc3)c3ccccc3)CC2)sc1C(=O)c1c(F)cccc1F [Example R1],−34,0,32,3,
COc1ccccc1C(=O)N1CCC(Nc2nc(N)c(C(=O)c3c(F)cccc3F)s2)CC1 [Example R114],60,0,42,65,
Cc1nnsc1C(=O)N1CCC(Nc2nc(N)c(C(=O)c3c(F)cccc3F)s2)CC1 [Example R70],21,0,44,12,
N#Cc1cccc(NC(=O)N2CCC(Nc3nc(N)c(C(=O)c4c(F)cccc4F)s3)CC2)c1 [Example O43],,,,,"CDK2 % Inhibition At 0.03 μM ([1]; 0.03 μM compound): 31%; HCT-116 % Inhibition at 0.25 μM ([2]; HCT-116, Table 2): 12%; CDK4 % Inhibition at 0.03 μM ([3]; 0.03 μM compound, Table 2): 10%"
CCOC(=O)C(CCSC)NC(=O)N1CCC(Nc2nc(N)c(C(=O)c3c(F)cccc3F)s2)CC1 (stereo not drawn) [Example O71],,,,,"CDK2 % Inhibition At 0.03 μM ([1]; 0.03 μM compound): 30%; HCT-116 % Inhibition at 0.25 μM ([2]; HCT-116, Table 2): 51%; CDK4 % Inhibition at 0.03 μM ([3]; 0.03 μM compound, Table 2): 7%"
Nc1nc(NC2CCN(C(=O)c3cc(Cl)ccc3O)CC2)sc1C(=O)c1c(F)cccc1F [Example R120],18,0,47,4,
COc1ccccc1NC(=O)N1CCC(Nc2nc(N)c(C(=O)c3c(F)cccc3F)s2)CC1 [Example O7],,,,,"CDK2 % Inhibition At 0.03 μM ([1]; 0.03 μM compound): 40%; HCT-116 % Inhibition at 0.25 μM ([2]; HCT-116, Table 2): 43%; CDK4 % Inhibition at 0.03 μM ([3]; 0.03 μM compound, Table 2): 10%"
Nc1nc(NC2CCN(C(=O)N3CCOCC3)CC2)sc1C(=O)c1c(F)cccc1F [Example R80],7,0,47,37,
CCC(=O)N1CCC(Nc2nc(N)c(C(=O)c3c(F)cccc3F)s2)CC1 [Example R172],34,0,49,49,
